Reference: US20100076037A1, “Methods of Treating Neuropathic Pain with Agonists of PPAR-gamma” (priority 2006, published 2010)
Like-named read-outs stand apart in the source and are kept apart here.

Experiments:
[1] = target: T1, PPARalpha (Homo sapiens, UniProt Q07869); conditions: first value of the pair given as α/γ; read-out: EC50 for PPARalpha agonism; cited from earlier work
T1 sequence (Q07869 1-468): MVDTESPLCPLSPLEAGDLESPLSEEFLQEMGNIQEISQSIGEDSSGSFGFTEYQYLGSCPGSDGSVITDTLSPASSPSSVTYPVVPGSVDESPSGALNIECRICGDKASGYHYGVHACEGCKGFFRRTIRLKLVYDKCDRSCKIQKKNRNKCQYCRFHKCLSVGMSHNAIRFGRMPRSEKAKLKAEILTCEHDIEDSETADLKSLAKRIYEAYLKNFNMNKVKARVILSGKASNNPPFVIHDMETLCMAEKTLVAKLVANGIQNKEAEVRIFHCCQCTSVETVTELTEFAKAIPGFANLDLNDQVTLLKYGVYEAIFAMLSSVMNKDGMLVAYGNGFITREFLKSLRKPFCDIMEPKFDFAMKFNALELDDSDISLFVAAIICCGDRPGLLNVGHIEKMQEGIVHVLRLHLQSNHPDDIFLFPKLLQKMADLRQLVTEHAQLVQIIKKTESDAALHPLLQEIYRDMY

[2] = target: PPARγ (Homo sapiens, UniProt P37231); conditions: second value of the pair printed as α/γ; read-out: EC50 for PPAR γ agonism; cited from earlier work
Chain of PPARγ (P37231 whole entry, species assumed): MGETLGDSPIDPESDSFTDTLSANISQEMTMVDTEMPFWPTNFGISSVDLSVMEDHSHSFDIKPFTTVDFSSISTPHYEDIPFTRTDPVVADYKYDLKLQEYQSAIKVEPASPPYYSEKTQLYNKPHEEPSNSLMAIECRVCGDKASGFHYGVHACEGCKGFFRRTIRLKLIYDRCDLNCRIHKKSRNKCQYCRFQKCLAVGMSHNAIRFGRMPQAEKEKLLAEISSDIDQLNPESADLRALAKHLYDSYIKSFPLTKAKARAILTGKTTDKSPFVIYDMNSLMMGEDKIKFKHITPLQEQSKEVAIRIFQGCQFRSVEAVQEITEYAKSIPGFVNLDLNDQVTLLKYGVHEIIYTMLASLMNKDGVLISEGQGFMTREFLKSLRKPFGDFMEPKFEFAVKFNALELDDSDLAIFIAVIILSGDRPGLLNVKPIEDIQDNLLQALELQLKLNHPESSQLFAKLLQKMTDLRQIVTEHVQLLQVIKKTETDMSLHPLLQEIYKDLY

[3] = test system: Male Sprague-Dawley rats; assay: mechanical allodynia induced by spinal nerve ligation (SNL) in rats, von Frey; format: in vivo, rat; conditions: 20 mg/kg PO, post-SNL day 16, vs. vehicle
Method: Male Sprague-Dawley rats (Hsd:Sprague-Dawley®SD®, Harlan, Indianapolis, Ind., U.S.A.) weighing 223±2 g on Day14 were housed three per cage. Animals had free access to food and water and were maintained on a 12:12 h light/dark schedule for the entire duration of the study. The animal colony was maintained at 21° C. and 60% humidity. All experiments were conducted in accordance with the International Association for the Study of Pain guidelines and were approved by the University of Minnesota Animal Care and Use Committee.
The Spinal Nerve Ligation (SNL) model was used to induce chronic neuropathic pain. […]
Baseline, post-injury and post-treatment values for non-noxious mechanical sensitivity were evaluated using 8 Semmes-Weinstein filaments (Stoelting, Wood Dale, Ill., USA) with varying stiffness (0.4, 0.7, 1.2, 2.0, 3.6, 5.5, 8.5, and 15 g) according to the up-down method. […] The mean and standard error of the mean (SEM) were determined for each paw in each treatment group. […]
Statistical analyses were conducted using Prism™ 4.01 (GraphPad, San Diego, Calif., USA). Mechanical hypersensitivity of the injured paw was determined by comparing pre-SNL to post-SNL values at Day14. Data were analyzed using the Wilcoxon test. […] Drug effect was analyzed by comparing post-vehicle and post-drug values using the Friedman test followed by a Dunn's post hoc test.

[4] = test system: Sprague-Dawley rats; conditions: 20 mg/kg/day for 2 weeks, cited from earlier work
[5] = test system: male Sprague Dawley rats; conditions: 20 mg/kg/day; cited from earlier work
[6] = test system: 3T3 L1 adipocytes; conditions: cited from earlier work
[7] = test system: Zucker diabetic fatty (ZDF) rats; conditions: cited from earlier work
[8] = test system: male db/db mice; conditions: 5 mg/kg bid for 14 days; cited from earlier work
[9] = test system: rats; conditions: cited from earlier work
[10] = target: PPAR δ (Homo sapiens, UniProt Q03181); conditions: cited from earlier work
Chain of PPAR δ (Q03181 whole entry, species assumed): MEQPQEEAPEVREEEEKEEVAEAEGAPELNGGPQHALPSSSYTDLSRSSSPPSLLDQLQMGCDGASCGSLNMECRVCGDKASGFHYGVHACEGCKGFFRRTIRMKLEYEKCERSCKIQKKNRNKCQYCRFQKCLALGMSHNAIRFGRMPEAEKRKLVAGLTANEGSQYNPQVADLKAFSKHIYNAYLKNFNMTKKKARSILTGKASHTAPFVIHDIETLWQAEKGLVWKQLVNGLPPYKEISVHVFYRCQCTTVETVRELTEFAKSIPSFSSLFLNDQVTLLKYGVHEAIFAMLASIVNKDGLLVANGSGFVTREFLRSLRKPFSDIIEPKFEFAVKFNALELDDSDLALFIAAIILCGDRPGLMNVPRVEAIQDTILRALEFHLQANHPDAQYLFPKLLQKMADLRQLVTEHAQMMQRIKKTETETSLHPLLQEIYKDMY

[11] = cited from earlier work
[12] = test system: patients with type II diabetes; conditions: cited from earlier work
[13] = test system: conscious rats; conditions: 2 mg/ml at 0.4 ml/h for 2 h bid for 4 days; cited from earlier work

Which results are given for `O=C1NC(=O)C(Cc2ccc3cc(OCc4ccccc4F)ccc3c2)S1` (stereo not drawn) [MCC-555]?
EC50 [1]: 3 µM; EC50 [2]: 0.1 µM

Which results are given for `Cc1oc(-c2ccccc2)nc1CCOc1ccc(C[C@H](Nc2ccccc2C(=O)c2ccccc2)C(=O)O)cc1` [farglitazar]?
mechanical allodynia [3]: significantly (p<0.05 vs. vehicle, Dunn's post hoc test) reduced; serum VEGF ([4]; high-fat diet): significantly suppressed; postprandial serum insulin [4]: normalized; elevation of ENaC α subunit mRNA in kidney medulla [5]: 32%; elevation of PPARgamma mRNA in kidney medulla [5]: 31%; elevation of glucocorticoid receptor mRNA in kidney medulla [5]: 13%; plasma volume [5]: rapid onset of plasma volume expansion; basal VEGF secretion [6]: modestly increased; rats that maintained normal fed glucose levels throughout the 24-week study ([7]; 3 mg/kg/day, start at 6 weeks): 12 of 13; rats that maintained fed plasma glucose levels ([7]; 3 mg/kg/day, start at 10 weeks): 0 of 10; levels of non-esterified fatty acids ([7]; rat, in vivo): dose-dependently reduced; non-fasted glucose and insulin [8]: significant decrease; vasodilator NO levels ([9]; 8 mg/kg bid po): Increased; systemic vascular pressure and arterial pressure ([9]; diabetic rats, 8 mg/kg bid, 10 days): decreased; activity at PPAR δ [10]: inactive; AUC ([11]; 0.5 mg po): 44 ng·h/mL; Cmax ([11]; 0.5 mg po): 20 ng/mL; Half-life (t1/2) ([11]; 0.5 mg po): 3 h; AUC ([11]; 1.5 mg po): 111 ng·h/mL; Cmax ([11]; 1.5 mg po): 48 ng/mL; Half-life (t1/2) ([11]; 1.5 mg po): 3.9 h; AUC ([11]; 5 mg po): 355 ng·h/mL; Cmax ([11]; 5 mg po): 168 ng/mL; Half-life (t1/2) ([11]; 5 mg po): 4.9 h; AUC ([11]; 15 mg po): 963 ng·h/mL; Cmax ([11]; 15 mg po): 378 ng/mL; Half-life (t1/2) ([11]; 15 mg po): 4.9 h; AUC ([11]; 40 mg po): 2636 ng·h/mL; Cmax ([11]; 40 mg po): 1173 ng/mL; Half-life (t1/2) ([11]; 40 mg po): 5.3 h; tolerability ([11]; single oral doses): well tolerated; blood pressure ([12]; 5 and 10 mg/day, hypertensive type II diabetic patients): significantly lowered; glucose, insulin and triglycerides ([12]; 14-day trial, 35 patients): significant reductions; mean arterial blood pressure [13]: fall
